Entries after “also recorded” stand apart in the source; their conditions may differ.
Columns and labels:
α1B-AR = target: T1, α1B-AR (Homo sapiens, UniProt P35368); test: Effect of compound on binding affinity of norepinephrine at α1B-AR; settings: 10^−5M
T1 construct: expressed in transfected cells; host or cells: Rat-1 fibroblast cells
T1 sequence (P35368 1-520): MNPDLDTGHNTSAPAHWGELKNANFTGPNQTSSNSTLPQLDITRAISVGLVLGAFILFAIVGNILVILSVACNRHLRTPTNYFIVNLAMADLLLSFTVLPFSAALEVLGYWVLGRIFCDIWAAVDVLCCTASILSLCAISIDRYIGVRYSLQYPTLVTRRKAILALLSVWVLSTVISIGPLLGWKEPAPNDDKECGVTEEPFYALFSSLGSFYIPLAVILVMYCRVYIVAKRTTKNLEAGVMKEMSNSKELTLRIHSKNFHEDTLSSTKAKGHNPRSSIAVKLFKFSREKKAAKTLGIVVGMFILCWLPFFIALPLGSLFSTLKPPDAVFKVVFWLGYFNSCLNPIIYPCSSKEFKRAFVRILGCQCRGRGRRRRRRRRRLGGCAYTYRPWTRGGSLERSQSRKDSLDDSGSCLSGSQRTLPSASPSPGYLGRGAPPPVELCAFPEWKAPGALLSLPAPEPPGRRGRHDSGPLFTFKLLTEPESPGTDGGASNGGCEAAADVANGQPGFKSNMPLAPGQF
Protocol: Competition binding assays: These compounds were characterized for their ligand binding properties at the α1-AR subtypes. The binding affinities of Compounds 1-10 were determined in a series of competition-binding experiments with the α1-AR-selective antagonist [^125I]HEAT as the radioligand. Assays were performed in duplicate in HEM buffer, in a total assay volume of 1000 μl. Radioligand binding assays are composed of 5 ug of membranes, harvested from Rat-1 fibroblast cells expressing only one of the alpha1-AR subtypes, HEM buffer containing GTP (composed of 20 mM HEPES, pH 7.4, 1.4 mM EGTA, 12.5 mM MgCl2, pH to 7.4), 0.5 mM GTP, 35-80 pM^125I-HEAT, and various doses of norepinephrine or epinephrine and incubated with shaking at 25° C. for 1-2 hours. The above conditions will convert all the conformations of the receptor into a single low affinity site. To show both high and low affinity sites of the receptor (typically seen with GPCR agonists), the GTP is removed from the binding buffer. Nonspecific binding was determined experimentally in the presence of 10^−4 M phentolamine. Unbound radioactivity was separated from membrane-bound radioactivity by filtration through Whatman GF/C filter paper. […] Bound radioactivity remaining on the filters was counted on an ICN gamma counter operating at 79.8% efficiency. Data are analyzed using Graphpad Prism. […]

[1] = Mean arterial blood pressure in 3×TG AD mice; assay type: in vivo; settings: 3×TG mice
Protocol: A 10 month continuous dose study was performed in the 3×TG Alzheimer's Disease (AD) mouse model containing the triple mutations (APP(swe), PS1(M146V), tau(P301L)) from Jackson labs. Synaptic dysfunction and LTP deficits manifests in an age-related manner beginning from 2-6 months that occurs prior to Aβ pathology (87, herein incorporated by reference). Hippocampal-dependent cognitive impairments begin at 4-6 months depending upon the strain (88-89, herein incorporated by reference). 3×Tg mice have documented cognitive deficits in the Morris water maze (88) and Barnes maze (9, 90). Deficits in long-term synaptic plasticity correlate with the accumulation of intraneuronal Aβ (88). 3×Tg have decreased neurogenesis in both SGZ and SVZ before Aβ pathology and treatments that increased neurogenesis improved memory in 3×TG mice (18-19, herein incorporated by reference).
(§1) AD mice were first randomized and sorted into control or treatment groups. […] 14 AD mice from each treatment group received Compound 3 in the drinking water (2.611 mg/kg/bw) to deliver a daily dose near the peak potentiation of the cAMP response in the brain at 10^−8M based upon the PAM assay and pharmacokinetics. This was achieved by adding Compound 3 to the drinking water at 32 uM, assuming the mice drink 6 ml/day, with only 10% of bioavailable drug reaching the brain. The drug was administered in the drinking water for 10 months, starting at age 2 months, then subjected to either different cognitive behavioral tests or electrophysiology at age 12 months to maximize the manifestations of AD symptoms in these mice. Mice are maintained on the drug for the duration of the studies and blinded to the operator.
At 12 months of age mice were subjected to long term potentiation (LTP) (FIG. 25).
Assessment: Blood pressure. […]

[2] = test system: 3×TG Alzheimer's Disease (AD) mouse model; settings: in vivo
Protocol: as §1

[3] = drinking water 2.611 mg/kg/bw, N=13-16

Q: Which results are given for CC(C)Cc1c(OCC2=NCCN2)cccc1N(C)S(C)(=O)=O [Compound 3, N-[3-(4,5-Dihydro-1H-imidazol-2-ylmethoxy)-2-isobutyl-phenyl]-N-methyl-methanesulfonamide]?
A: effect on affinity of norepinephrine at the α1B-AR (α1B-AR): no effect; also recorded: does not increase the affinity of norepinephrine; blood pressure, treated vs untreated [1]: no significant differences; also recorded: does not affect blood pressure; mean arterial blood pressure, treated females (F) [1, 3]: 85±2.4; mean arterial blood pressure, treated males (M) [1, 3]: 97±3; death rates between groups [2]: no differences in the death rates

Reference: patent US12384751B2, “Allosteric activators of the ALPHA1A-adrenergic receptor” (The Cleveland Clinic Foundation, priority 2019, dated 2025)
